Molecules are shown by their SMILES.

The target of one experiment is T1, VR1 (human) (Homo sapiens, UniProt Q8NER1).
T1 construct: expressed in transfected cells; host or cells: CHO K1 cells (ECACC)
The experiment is described as follows: Functional testing on vanilloid receptor VR1, FLIPR Ca2+ inflow assay (CHO K1 cells stably transfected with the VR1 gene). The class given is cell-based. To be noted: test compound 10 μM; for inhibition at 10 µM / activation at 10 µM: CHO-K1; for inhibition at 10 µM: read-out: VR1 (human) (% inhibition compared to 10 μM CP); for activation at 10 µM: read-out: VR1 (human) (% stimulation compared to 10 μM CP). The source says: II. Functional Testing Carried out on the Vanilloid Receptor (VR1)
The agonistic or antagonistic effect of the substances to be tested can also be determined on the vanilloid receptor (VR1) using the following assay. According to this assay, the Ca^2+ inflow is quantified through the channel using a Ca^2+-sensitive dye (type Fluo-4, Molecular Probes Europe BV, Leiden, Netherlands) in a fluorescent imaging plate reader (FLIPR, Molecular Devices, Sunnyvale, USA).
Chinese hamster ovary cells (CHO K1 cells, European Collection of Cell Cultures (ECACC) United Kingdom) were stably transfected with the VR1 gene. For functional testing, these cells were plated out on poly-D-lysine-coated black 96 well plates having a clear base (BD Biosciences, Heidelberg, Germany) at a density of 25,000 cells/well. The cells were incubated overnight at 37° C. and 5% CO2 in a culture medium (Ham's F12 nutrient mixture, 10-% by volume of FCS (foetal calf serum), 18 μg/ml L-proline). The next day the cells were incubated with Fluo-4 (Fluo-4 2 μM, 0.01% by volume of Pluronic F127, Molecular Probes in HBSS (Hank's buffered saline solution), Gibco Invitrogen GmbH, Karlsruhe, Germany) for 30 minutes at 37° C. Subsequently, the plates were washed 3 times with HBSS buffer and after further incubation for 15 minutes at room temperature used for Ca^2+ measurement in a FLI PR assay. The Ca^2+-dependent fluorescence was measured before and after the addition of the substances to be tested (λex wavelength=488 nm, λem=540 nm). Quantification was carried out by measuring the highest fluorescence intensity (FC, Fluorescence Counts) over time.
The FLIPR protocol consists of 2 substance additions. First the compounds to be tested (10 μM) were pipetted onto the cells and the Ca^2+ inflow was compared with the control (capsaicin 10 μM) (% activation based on the Ca^2+ signal after the addition of 10 μM capsaicin). After 5 minutes' incubation, 100 nM of capsaicin were administered and the Ca^2+ inflow was also determined.
Desensitising agonists and antagonists led to suppression of the Ca^2+ inflow. The % inhibition was calculated compared to the maximum achievable inhibition with 10 μM of capsaicin.

For experiment [1], the target named is T2, rat-species vanilloid receptor 1 (VR1/TRPV1) (Rattus norvegicus, UniProt O35433).
T2 construct: endogenous in cells; host or cells: primary cultured rat dorsal root ganglion cells
As to the kind of experiment: Functional testing on vanilloid receptor 1 (VR1/TRPV1), FLIPR Ca2+ inflow assay in rat dorsal root ganglia cells. The experiment is classed as cell-based. Conditions: test compound 10 μM; for inhibition at 10 µM: read-out: VR1 (rat) (% inhibition compared to 10 μM CP); for activation at 10 µM: read-out: VR1 (rat) (% stimulation compared to 10 μM CP). The source says:
I. Functional Testing Carried out on the Vanilloid Receptor 1 (VRI/TRPV1 Receptor)
The agonistic or antagonistic effect of the substances to be tested can be determined on the rat-species vanilloid receptor 1 (VR1/TRPV1) using the following assay. According to this assay, the Ca^2+ inflow is quantified through the receptor channel using a Ca^2+-sensitive dye (type Fluo-4, Molecular Probes Europe BV, Leiden, Netherlands) in a fluorescent imaging plate reader (FLIPR, Molecular Devices, Sunnyvale, USA).
Complete medium: 50 mL HAMS F12 nutrient mixture (Gibco Invitrogen GmbH, Karlsruhe, Germany) with
10% by volume of FCS (foetal calf serum, Gibco Invitrogen GmbH, Karlsruhe, Germany, […]);
2 mM L-glutamine (Sigma, Munich, Germany);
1% by weight of AA solution (antibiotic/antimyotic solution, PAA, Pasching, Austria) and 25 ng/ml NGF medium (2.5 S, Gibco Invitrogen GmbH, Karlsruhe, Germany)
Cell culture plate: Poly-D-lysine-coated, black 96 well plates having a clear base (96 well black/clear plate, BD Biosciences, Heidelberg, Germany) were additionally coated with laminin (Gibco Invitrogen GmbH, Karlsruhe, Germany), the laminin being diluted with PBS (Ca—Mg-free PBS, Gibco Invitrogen GmbH, Karlsruhe, Germany) to a concentration of 100 μg/mL. Aliquots having a laminin concentration of 100 μg/mL were removed and stored at −20° C. The aliquots were diluted with PBS in a ratio of 1:10 to 10 μg/mL laminin and in each case 50 μL of the solution were pipetted into a recess in the cell culture plate. The cell culture plates were incubated for at least two hours at 37° C., the excess solution was removed by suction-filtration and the recesses were each washed twice with PBS. The coated cell culture plates were stored with excess PBS which was not removed until just before the feeding of the cells.
Preparation of the Cells:
The vertebral column was removed from decapitated rats and placed immediately into cold HBSS buffer (Hank's buffered saline solution, Gibco Invitrogen GmbH, Karlsruhe, Germany), i.e. buffer located in an ice bath, mixed with 1% by volume (percent by volume) of an AA solution (antibiotic/antimyotic solution, PAA, Pasching, Austria). The vertebral column was cut longitudinally and removed together with fasciae from the vertebral canal. Subsequently, the dorsal root ganglia (DRG) were removed and again stored in cold HBSS buffer mixed with 1% by volume of an AA solution. The DRG, from which all blood remnants and spinal nerves had been removed, were transferred in each case to 500 μL of cold type 2 collagenase (PAA, Pasching, Austria) and incubated for 35 minutes at 37° C. After the addition of 2.5% by volume of trypsin (PAA, Pasching, Austria), incubation was continued for 10 minutes at 37° C. After complete incubation, the enzyme solution was carefully pipetted off and 500 μL of complete medium were added to each of the remaining DRG. The DRG were in each case suspended several times, drawn through cannulae No. 1, No. 12 and No. 16 using a syringe and transferred to a 50 mL Falcon tube which was filled up to 15 mL with complete medium. The contents of each Falcon tube was in each case filtered through a 70 μm Falcon filter element and centrifuged for 10 minutes at 1,200 rpm and room temperature. The resulting pellet was in each case taken up in 250 μL of complete medium and the number of cells determined.
The number of cells in the suspension was set to 3×10^5 per mL and 150 μL of this suspension were in each case introduced into a recess in the cell culture plates coated as described hereinbefore. In the incubator the plates were left for two to three days at 37° C., 5% by volume of CO2 and 95% relative humidity. […]

The mark [2] stands for this setting: 5 min incubation, then 100 nM capsaicin, relative to maximum achievable inhibition with 10 μM capsaicin.
Where [3] appears, read: Ca2+ inflow relative to signal of 10 μM capsaicin (CP).

T1 sequence (Q8NER1 whole entry): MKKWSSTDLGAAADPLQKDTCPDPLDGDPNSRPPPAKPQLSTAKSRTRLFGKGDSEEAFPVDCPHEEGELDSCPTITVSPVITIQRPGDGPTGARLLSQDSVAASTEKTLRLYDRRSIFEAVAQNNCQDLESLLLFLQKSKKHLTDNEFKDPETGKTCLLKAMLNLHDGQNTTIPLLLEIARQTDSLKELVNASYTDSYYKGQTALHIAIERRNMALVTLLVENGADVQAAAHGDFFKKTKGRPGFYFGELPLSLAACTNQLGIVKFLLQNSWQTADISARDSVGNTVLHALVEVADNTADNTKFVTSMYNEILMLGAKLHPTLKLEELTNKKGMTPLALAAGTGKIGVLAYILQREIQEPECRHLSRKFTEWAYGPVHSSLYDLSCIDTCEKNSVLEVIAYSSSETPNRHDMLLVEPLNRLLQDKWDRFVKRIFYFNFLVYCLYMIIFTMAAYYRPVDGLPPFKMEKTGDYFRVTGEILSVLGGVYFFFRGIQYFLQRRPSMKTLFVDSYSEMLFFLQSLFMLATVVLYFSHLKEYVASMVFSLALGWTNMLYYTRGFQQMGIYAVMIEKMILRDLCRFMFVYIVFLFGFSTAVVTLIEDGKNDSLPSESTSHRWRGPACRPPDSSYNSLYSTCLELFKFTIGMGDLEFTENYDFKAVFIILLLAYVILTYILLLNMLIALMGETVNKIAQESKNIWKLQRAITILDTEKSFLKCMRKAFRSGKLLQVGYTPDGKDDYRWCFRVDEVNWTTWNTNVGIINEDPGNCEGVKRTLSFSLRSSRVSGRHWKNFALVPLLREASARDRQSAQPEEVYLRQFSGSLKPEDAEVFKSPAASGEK
T2 sequence (O35433 whole entry): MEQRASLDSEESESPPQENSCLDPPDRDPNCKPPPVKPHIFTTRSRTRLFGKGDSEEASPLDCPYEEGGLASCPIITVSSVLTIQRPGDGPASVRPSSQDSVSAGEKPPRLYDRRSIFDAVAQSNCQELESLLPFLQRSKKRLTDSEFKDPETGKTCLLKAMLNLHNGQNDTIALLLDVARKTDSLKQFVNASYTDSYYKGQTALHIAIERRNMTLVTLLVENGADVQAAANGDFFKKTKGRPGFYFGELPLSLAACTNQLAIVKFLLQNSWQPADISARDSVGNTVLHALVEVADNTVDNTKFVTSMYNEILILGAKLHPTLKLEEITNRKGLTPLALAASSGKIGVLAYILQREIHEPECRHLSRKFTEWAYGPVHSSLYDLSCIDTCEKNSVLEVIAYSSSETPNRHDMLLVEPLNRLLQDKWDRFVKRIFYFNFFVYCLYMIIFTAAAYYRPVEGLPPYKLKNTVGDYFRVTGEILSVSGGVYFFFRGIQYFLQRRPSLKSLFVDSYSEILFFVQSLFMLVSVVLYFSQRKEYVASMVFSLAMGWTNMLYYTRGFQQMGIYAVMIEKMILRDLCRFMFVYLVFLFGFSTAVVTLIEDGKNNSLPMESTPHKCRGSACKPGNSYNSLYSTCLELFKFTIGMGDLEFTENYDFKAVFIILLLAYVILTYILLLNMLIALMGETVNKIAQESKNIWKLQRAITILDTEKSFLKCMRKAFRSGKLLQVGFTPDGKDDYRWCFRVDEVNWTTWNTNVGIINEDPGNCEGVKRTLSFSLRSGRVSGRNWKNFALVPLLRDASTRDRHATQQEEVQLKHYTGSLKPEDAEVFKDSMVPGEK

Turning to `CSc1cccc(NC(=O)N2CCC3(CC2)CC(C(=O)N2CCN(c4ncccc4Cl)CC2)=NO3)c1` [Example 56, 3-[4-(3-chloropyridin-2-yl)piperazine-1-carbonyl]-1-oxa-2,8-diazaspiro[4.5]dec-2-ene-8-carboxylic acid-(3-methylsulphanylphenyl)amide], the inhibition at 10 µM is 41.9% on VR1 (human) (setting [2]) and 63.3% in experiment [1] (setting [2]). For the same compound, the activation at 10 µM at VR1 (human) (setting [3]) worked out at 5.26%; in experiment [1] (setting [3]), 30.2%.
For `CSc1ccc(NC(=O)N2CCC3(CC2)CC(C(=O)N2CCN(c4ncccc4Cl)CC2)=NO3)cc1` [Example 58, 3-[4-(3-chloropyridin-2-yl)piperazine-1-carbonyl]-1-oxa-2,8-diazaspiro[4.5]dec-2-ene-8-carboxylic acid-(4-methylsulphanylphenyl)amide], in that order: 84.9%, 72.5%, 72.9% and 19.5%.
The like results for `CC(C)c1ccccc1NC(=O)N1CCC2(CC1)CC(C(=O)N1CCN(c3ncccc3Cl)CC1)=NO2` [Example 61, 3-[4-(3-chloropyridin-2-yl)piperazine-1-carbonyl]-1-oxa-2,8-diazaspiro[4.5]dec-2-ene-8-carboxylic acid-(2-isopropylphenyl)amide] were, in that order, -15.1%, 47%, 0.08% and 0.47%.
For `CC(C)c1ccc(NC(=O)N2CCC3(CC2)CC(C(=O)N2CCN(c4ncccc4Cl)CC2)=NO3)cc1` [Example 63, 3-[4-(3-chloropyridin-2-yl)piperazine-1-carbonyl]-1-oxa-2,8-diazaspiro[4.5]dec-2-ene-8-carboxylic acid-(4-isopropylphenyl)amide], in that order: 15.8%, 78.9%, 2.59% and 24.5%.
Consider `O=C(Nc1cccc(C(F)(F)F)c1)N1CCC2(CC1)CC(C(=O)N1CCN(c3ncccc3Cl)CC1)=NO2` [Example 68, 3-[4-(3-chloropyridin-2-yl)piperazine-1-carbonyl]-1-oxa-2,8-diazaspiro[4.5]dec-2-ene-8-carboxylic acid-(3-trifluoromethylphenyl)amide], for which the values for the inhibition at 10 µM (at VR1 (human) (setting [2]); in experiment [1] (setting [2])) were 24.9% and 58.1%, respectively. Further, the activation at 10 µM was 16.4% on VR1 (human) (setting [3]) and 6.55% in experiment [1] (setting [3]).
As for `COc1ccc(CNC(=O)C2=NOC3(CCN(C(=O)Nc4ccc(C(F)(F)F)cc4)CC3)C2)cc1OC` [Example 70, 1-oxa-2,8-diazaspiro[4.5]dec-2-ene-3,8-dicarboxylic acid-3-(3,4-dimethoxybenzylamide)-8-[(4-trifluoromethylphenyl)amide]], at VR1 (human) (setting [2]), the “VR1 (human) (% inhibition compared to 10 μM CP)” value was −0.43%. In addition, at VR1 (human) (setting [3]), the “VR1 (human) (% stimulation compared to 10 μM CP)” value was −0.18%. Moreover, the “VR1 (rat) (% inhibition compared to 10 μM CP)” value in experiment [1] (setting [2]) was 67.41%. In experiment [1] (setting [3]), the “VR1 (rat) (% stimulation compared to 10 μM CP)” value was 0.35%.
On to `O=C(Nc1ccc(C(F)(F)F)cc1)N1CCC2(CC1)CC(C(=O)N1CCN(c3ncccc3Cl)CC1)=NO2` [Example 71, 3-[4-(3-chloropyridin-2-yl)piperazine-1-carbonyl]-1-oxa-2,8-diazaspiro[4.5]dec-2-ene-8-carboxylic acid-(4-trifluoromethylphenyl)amide], for which the inhibition at 10 µM at VR1 (human) (setting [2]) came to 42%; in experiment [1] (setting [2]) it was 57.2%. The activation at 10 µM on VR1 (human) (setting [3]) turned out to be 34.7%; in experiment [1] (setting [3]) it was 31.2%.
For `CC(C)(C)c1ccc(NC(=O)N2CCC3(CC2)CC(C(=O)N2CCN(c4ncccc4Cl)CC2)=NO3)cc1` [Example 116, 3-[4-(3-chloropyridin-2-yl)piperazine-1-carbonyl]-1-oxa-2,8-diazaspiro[4.5]dec-2-ene-8-carboxylic acid-(4-tert-butylphenyl)amide], in that order: 77%, 95%, 42% and 59%.
The like results for `CC(C)(C)c1ccc(NC(=O)N2CCC3(CC2)CC(C(=O)N2CCN(c4ncccc4C(F)(F)F)CC2)=NO3)cc1` [Example 228, 3-[4-(3-trifluoromethylpyridin-2-yl)piperazine-1-carbonyl]-1-oxa-2,8-diazaspiro[4.5]dec-2-ene-8-carboxylic acid-(4-tert-butylphenyl)amide] were, in that order, 48.1%, 100%, 7.07% and 17.2%.
For `O=C(Nc1ccc(S(F)(F)(F)(F)F)cc1)N1CCC2(CC1)CC(C(=O)N1CCN(c3ncccc3Cl)CC1)=NO2` [Example 229, 3-[4-(3-chloropyridin-2-yl)piperazine-1-carbonyl]-1-oxa-2,8-diazaspiro[4.5]dec-2-ene-8-carboxylic acid-(4-pentafluorosulphanylphenyl)amide], in that order: 37%, 94%, 10% and 45%.

The term inhibition denotes the drop in the measured response relative to a control, in per cent.
